Data published in patent publication US20120270928A1, “MICRORNA COMPOUNDS AND METHODS FOR MODULATING MIR-21 ACTIVITY” (REGULUS THERAPEUTICS INC., priority 2011, published 2012).

Key:
[1] = tested on: ischemia reperfusion injury/nephrectomy (IR/Nx) model; assay: Ischemia reperfusion injury/nephrectomy (IR/Nx) model: urinary albumin to creatinine ratio; type: in vivo, mouse; details: 20 mg/kg subcutaneously on days 2, 3, 4, and 8, urine on day 9
From the text: An ischemia reperfusion injury/nephrectomy (IR/Nx) model is created in the mouse through temporary unilateral clamping of an artery in one kidney, which leads to tubule damage, inflammation, and fibrosis, followed by removal of the second kidney at a later timepoint. In this model, the acute kidney dysfunction phase is useful to test candidate agents for the treatment of acute kidney injury (i.e. up to about the first 5 days), and the later phases of kidney dysfunction are useful to model chronic fibrosis (i.e. after about the first 5 days).
Unilateral IR was induced for a period of 30 minutes. Treatment groups were as follows: sham IR procedure; IR with PBS administered subcutaneously; IR with mismatched control 25109 administered subcutaneously at a dose of 20 mg/kg; IR with anti-miR-21 compound 25070 administered subcutaneously at a dose of 20 mg/kg; and IR with anti-miR-21 compound 25923 administered subcutaneously at a dose of 20 mg/kg. PBS or anti-miR was administered on days 2, 3, 4, and 8 following IR. On day 8, the healthy kidney was removed by nephrectomy from each animal, and animals were sacrificed on day 9. Just prior to sacrifice, urine was collected by direct bladder puncture.
Urinary albumin to creatinine ratio was measured in the urine from each mouse. […] The geometric mean of the albumin to creatinine ratio in each group of mice was 16 μgAlb/mgCr (nephrectomy-only control), 127 μgAlb/mgCr (IR/Nx, PBS control), 140 μgAlb/mgCr (IR/Nx, 25109 control), 40 μgAlb/mgCr (IR/Nx, 25070), and 31 μgAlb/mgCr (IR/Nx, 25923). Blood urea nitrogen and serum creatinine levels were similar across all IR/Nx mice, and were elevated relative to nephrectomy-only control mice (data not shown).

[2] = Ex vivo liver homogenate stability assay (HPLC-TOF MS); details: 24 hours at 37° C.
[3] = In vivo stability of compound in kidney tissue after administration to mice; details: kidney tissue after administration

Substance | geometric mean of the urinary albumin to creatinine ratio [1] [μgAlb/mgCr] | ex vivo (liver) N %↓ ([2]; 5 μM oligonucleotide in liver homogenate (50 mg tissue per ml), full-length compound) [%] | ex vivo (liver) % Endo ([2]; 5 μM oligonucleotide in liver homogenate) [%] | ex vivo (liver) % N − 1 ([2]; 5 μM oligonucleotide in liver homogenate, compound lacking the 3′-terminal nucleoside) [%] | in vivo (kidney) N − 1 (%) ([3]; compound lacking the 3′-terminal nucleoside) | in vivo (kidney) N (%) ([3]; full-length compound)
AEASATCSTGTCSTCAUSAATASAAE [Compound 25109, reference compound] | 140 |  |  |  |  | 
AECSATCSASGTCSUSGAUSASAGCSUsAE (ACATCAGTCTGATAAGCTA; sugar and backbone modifications) [Compound 25220] |  | 3 | 3 | 0 | 16 ± 6 | 67 ± 16
